Measured values taken from patent US8183262B2, “Pyridine derivatives as mGluR2 antagonists” (Hoffmann-La Roche Inc., priority 2007, dated 2012).

melting point	Compound
260 °C	Nc1ncc(-c2cccc(-c3cc(-c4ccc(C(F)(F)F)cc4)cc(C(F)(F)F)n3)c2)cn1 [Example 233, 5-{3-[6-Trifluoromethyl-4-(4-trifluoromethyl-phenyl)-pyridin-2-yl]-phenyl}-pyrimidin-2-ylamine]
239 °C	Nc1ncc(-c2cccc(-c3cc(-c4ccc(Cl)cc4)cc(C(F)(F)F)n3)c2)cn1 [Example 234, 5-{3-[4-(4-Chloro-phenyl)-6-trifluoromethyl-pyridin-2-yl]-phenyl}-pyrimidin-2-ylamine]
172 °C	Nc1ccc(-c2cccc(-c3cc(-c4ccc(Cl)cc4)cc(C(F)(F)F)n3)c2)cn1 [Example 235, 5-{3-[4-(4-Chloro-phenyl)-6-trifluoromethyl-pyridin-2-yl]-phenyl}-pyridin-2-ylamine]
163 °C	Cc1cc(-c2ccc(C(F)(F)F)cc2)cc(-c2nc(-c3ccc(N)nc3)no2)n1 [Example 236, 5-{5-[6-Methyl-4-(4-trifluoromethyl-phenyl)-pyridin-2-yl]-[1,2,4]oxadiazol-3-yl}-pyridin-2-ylamine]
229 °C	Nc1ccc(-c2noc(-c3cc(C(F)(F)F)cc(-c4ccc(C(F)(F)F)cc4)n3)n2)cn1 [Example 238, 5-{5-[4-Trifluoromethyl-6-(4-trifluoromethyl-phenyl)-pyridin-2-yl]-[1,2,4]oxadiazol-3-yl}-pyridin-2-ylamine]
191 °C	Cc1cc(-c2ccc(C(F)(F)F)cc2)cc(-c2ccnc(-c3ccc(N)nc3)n2)n1 [Example 239, 5-{4-[6-Methyl-4-(4-trifluoromethyl-phenyl)-pyridin-2-yl]-pyrimidin-2-yl}-pyridin-2-ylamine]
264 °C	Cc1cc(-c2ccc(C(F)(F)F)cc2)cc(-c2ccnc(-c3cnc(N)nc3)n2)n1 [Example 240, 4-[6-Methyl-4-(4-trifluoromethyl-phenyl)-pyridin-2-yl]-[2,5′]bipyrimidinyl-2′-ylamine]
258 °C	Cc1cc(-c2ccc(C(F)(F)F)cc2)cc(-c2nccc(-c3ccc(N)nc3)n2)n1 [Example 241, 5-{2-[6-Methyl-4-(4-trifluoromethyl-phenyl)-pyridin-2-yl]-pyrimidin-4-yl}-pyridin-2-ylamine]
245 °C	Cc1cc(-c2ccc(Cl)c(Cl)c2)cc(-n2cnc(-c3ccc(N)nc3)c2)n1 [Example 246, 5-{1-[4-(3,4-Dichloro-phenyl)-6-methyl-pyridin-2-yl]-1H-imidazol-4-yl}-pyridin-2-ylamine]
> 250 °C	Cc1cc(-c2ccc(C(F)(F)F)cc2)cc(-c2cccc(-c3cncc(S(N)(=O)=O)c3)c2)n1 [Example 248, 5-{3-[6-Methyl-4-(4-trifluoromethyl-phenyl)-pyridin-2-yl]-phenyl}-pyridine-3-sulfonic acid amide]
188 °C	Cc1cc(-c2ccc(Cl)c(Cl)c2)cc(-c2cccc(-c3cnc(N)nc3)c2)n1 [Example 250, 5-{3-[4-(3,4-Dichloro-phenyl)-6-methyl-pyridin-2-yl]-phenyl}-pyrimidin-2-ylamine]
103 °C	Cc1cc(-c2ccc(C(F)(F)F)cc2)cc(-c2nccs2)n1 [Example 251, 2-Methyl-6-thiazol-2-yl-4-(4-trifluoromethyl-phenyl)-pyridine]
196 °C	Cc1cc(-c2ccc(C(F)(F)F)cc2)cc(-c2ccc(-c3ccc(N)nc3)s2)n1 [Example 252, 5-{5-[6-Methyl-4-(4-trifluoromethyl-phenyl)-pyridin-2-yl]-thiophen-2-yl}-pyridin-2-ylamine]
> 250 °C	Cc1cc(-c2ccc(C(F)(F)F)cc2)cc(-c2ccc(-c3cnc(N)nc3)s2)n1 [Example 253, 5-{5-[6-Methyl-4-(4-trifluoromethyl-phenyl)-pyridin-2-yl]-thiophen-2-yl}-pyrimidin-2-ylamine]
180 °C	Cc1cc(-c2ccc(Cl)c(Cl)c2)cc(-c2ccc(N3C=CC=CC3N)s2)n1 (centres unmarked) [Example 254, 1-{5-[4-(3,4-Dichloro-phenyl)-6-methyl-pyridin-2-yl]-thiophen-2-yl}-pyridin-2-ylamine]
237 °C	Cc1cc(-c2ccc(Cl)c(Cl)c2)cc(-c2ccc(-c3cnc(N)nc3)s2)n1 [Example 255, 5-{5-[4-(3,4-Dichloro-phenyl)-6-methyl-pyridin-2-yl]-thiophen-2-yl}-pyrimidin-2-ylamine]
175 °C	Cc1cc(-c2ccc(C(F)(F)F)cc2)cc(-c2cc(-c3ccc(N)nc3)cs2)n1 [Example 256, 5-{5-[6-Methyl-4-(4-trifluoromethyl-phenyl)-pyridin-2-yl]-thiophen-3-yl}-pyridin-2-ylamine]
105 °C (dec.)	Cc1cc(-c2ccc(C(F)(F)F)cc2)cc(-c2cccc(-c3cncc(S(=O)(=O)NC(C)(C)CO)c3)c2)n1 [Example 257, 5-{3-[6-Methyl-4-(4-trifluoromethyl-phenyl)-pyridin-2-yl]-phenyl}-pyridine-3-sulfonic acid (2-hydroxy-1,1-dimethyl-ethyl)-amide]

melting point	Compound
181 °C	CONS(=O)(=O)c1cccc(-c2cccc(-c3cc(-c4ccc(C(F)(F)F)cc4)cc(C)n3)c2)c1 [Example 258, 3′-[6-Methyl-4-(4-trifluoromethyl-phenyl)-pyridin-2-yl]-biphenyl-3-sulfonic acid methoxy-amide]
209 °C	CCc1cc(-c2ccc(C(F)(F)F)cc2)cc(-c2cccc(-c3cnc(N)nc3)c2)n1 [Example 260, 5-{3-[6-Ethyl-4-(4-trifluoromethyl-phenyl)-pyridin-2-yl]-phenyl}-pyrimidin-2-ylamine]
183 °C	Cc1cc(-c2ccc(C(F)(F)F)cc2)cc(-c2cccc(-c3cccc(S(=O)(=O)NC(C)(C)C)c3)n2)n1 [Example 261, N-tert-Butyl-3-[6′-methyl-4′-(4-trifluoromethyl-phenyl)-[2,2′]bipyridinyl-6-yl]-benzenesulfonamide]
218 °C	Cc1cc(-c2ccc(C(F)(F)F)cc2)cc(-c2ccnc(-c3cccc(S(=O)(=O)NC(C)(C)C)c3)n2)n1 [Example 262, N-tert-Butyl-3-{4-[6-methyl-4-(4-trifluoromethyl-phenyl)-pyridin-2-yl]-pyrimidin-2-yl}-benzenesulfonamide]
196 °C	Cc1cc(-c2ccc(C(F)(F)F)cc2)cc(-c2nc(-c3cccc(S(=O)(=O)NC(C)(C)C)c3)cs2)n1 [Example 263, N-tert-Butyl-3-{2-[6-methyl-4-(4-trifluoromethyl-phenyl)-pyridin-2-yl]-thiazol-4-yl}-benzenesulfonamide]
74 °C	CCc1cc(-c2ccc(C(F)(F)F)cc2)cc(-c2cccc(-c3ccc(N)nc3)c2)n1 [Example 264, 5-{3-[6-Ethyl-4-(4-trifluoromethyl-phenyl)-pyridin-2-yl]-phenyl}-pyridin-2-ylamine]
169 °C	CCc1cc(-c2ccc(C(F)(F)F)cc2)cc(-c2cccc(-c3cccc(S(=O)(=O)NC(C)(C)C)c3)c2)n1 [Example 265, 3′-[6-Ethyl-4-(4-trifluoromethyl-phenyl)-pyridin-2-yl]-biphenyl-3-sulfonic acid tert-butylamide]
211 °C	Cc1cc(-c2ccc(C(F)(F)F)cc2)nc(-c2cccc(-c3ccc(S(N)(=O)=O)s3)c2)c1 [Example 273, 5-{3-[4-Methyl-6-(4-trifluoromethyl-phenyl)-pyridin-2-yl]-phenyl}-thiophene-2-sulfonic acid amide]
203 °C	Cc1cc(-c2ccc3c(c2)OCO3)cc(-c2cccc(-c3ccc(N)nc3)c2)n1 [Example 276, 5-[3-(4-Benzo[1,3]dioxol-5-yl-6-methyl-pyridin-2-yl)-phenyl]-pyridin-2-ylamine]
236 °C	CC(C)(C)NS(=O)(=O)c1cnc(-c2cn(-c3cc(C(F)(F)F)cc(-c4ccc(C(F)(F)F)cc4)n3)cn2)s1 [Example 281, 2-{1-[4-Trifluoromethyl-6-(4-trifluoromethyl-phenyl)-pyridin-2-yl]-1H-imidazol-4-yl}-thiazole-5-sulfonic acid tert-butylamide]
> 266 °C	NS(=O)(=O)c1cccc(-c2cn(-c3cc(C(F)(F)F)cc(-c4ccc(C(F)(F)F)cc4)n3)cn2)c1 [Example 283, 3-{1-[4-Trifluoromethyl-6-(4-trifluoromethyl-phenyl)-pyridin-2-yl]-1H-imidazol-4-yl}-benzenesulfonamide]
> 266 °C	NS(=O)(=O)c1cnc(-c2cn(-c3cc(C(F)(F)F)cc(-c4ccc(C(F)(F)F)cc4)n3)cn2)s1 [Example 284, 2-{1-[4-Trifluoromethyl-6-(4-trifluoromethyl-phenyl)-pyridin-2-yl]-1H-imidazol-4-yl}-thiazole-5-sulfonic acid amide]
196 °C	CC(C)(C)NS(=O)(=O)c1cccc(-c2cc(-c3cc(C(F)(F)F)cc(-c4ccc(C(F)(F)F)cc4)n3)ccn2)c1 [Example 285, N-tert-Butyl-3-[4-trifluoromethyl-6-(4-trifluoromethyl-phenyl)-[2,4′]bipyridinyl-2′-yl]-benzenesulfonamide]
227 °C (dec.)	NS(=O)(=O)c1cccc(-c2cc(-c3cc(C(F)(F)F)cc(-c4ccc(C(F)(F)F)cc4)n3)ccn2)c1 [Example 286, 3-[4-Trifluoromethyl-6-(4-trifluoromethyl-phenyl)-[2,4′]bipyridinyl-2′-yl]-benzenesulfonamide]
189 °C	Cc1cc(-c2ccc(C(F)(F)F)cc2)cc(-c2ccnc(-c3cccc(S(=O)(=O)NC(C)(C)C)c3)c2)n1 [Example 287, N-tert-Butyl-3-[6-methyl-4-(4-trifluoromethyl-phenyl)-[2,4′]bipyridinyl-2′-yl]-benzenesulfonamide]
> 250 °C	Cc1cc(-c2ccc(C(F)(F)F)cc2)cc(-c2ccnc(-c3cccc(S(N)(=O)=O)c3)c2)n1 [Example 289, 3-[6-Methyl-4-(4-trifluoromethyl-phenyl)-[2,4′]bipyridinyl-2′-yl]-benzenesulfonamide]
> 250 °C	NS(=O)(=O)c1cncc(-c2cn(-c3cc(C(F)(F)F)cc(-c4ccc(C(F)(F)F)cc4)n3)cn2)c1 [Example 290, 5-{1-[4-Trifluoromethyl-6-(4-trifluoromethyl-phenyl)-pyridin-2-yl]-1H-imidazol-4-yl}-pyridine-3-sulfonic acid amide]
